Test results reported in article PMC10999543, “Identification of kinase modulators as host-directed therapeutics against intracellular methicillin-resistant Staphylococcus aureus” (Frontiers in Cellular and Infection Microbiology, 2024).
Where two headings read alike, the source gives them in different places.

Assays:
intracellular MRSA = format: cell-based, Staphylococcus aureus; conditions: for z-scoreMRSA+ mean: mean of 3 replicates; for z-scoreMRSA+ rep 1 / %GFP+ rep 1: replicate 1; for z-scoreMRSA+ rep 2 / %GFP+ rep 2: replicate 2; for z-scoreMRSA+ rep 3 / %GFP+ rep 3: replicate 3
Description: (§1) The cells were resuspended in cell culture medium without antibiotics, seeded with 10,000 cells/well into Costar flat-bottom 96-well plates (Corning, Amsterdam, the Netherlands), and were incubated overnight at 37°C/5% CO2. The next day, the bacteria were centrifuged at ≥1800 g for 15 min and resuspended in cold PBS + 5 mM ethylenediaminetetraacetic acid (EDTA). The number of CFUs present in the bacterial suspension was estimated from the optical density at 600 nm (OD600) by assuming 8x10^8 CFUs to be present in a bacterial suspension with OD600 = 1, based on prior titrations. The bacterial suspension was diluted in cell culture medium without antibiotics and added to the cells. Accuracy of the multiplicity of infection (MOI) was validated by plating serial dilutions of the MRSA inoculums on Difco TS agar plates (BD Biosciences). The calculated mean MOI throughout all experiments was 6.8 ± 4.6 (mean ± SD). Infected cells were centrifuged for 3 min at 150 g and incubated for 1 hour at 37°C/5% CO2. Next, the cells were incubated with fresh cell culture medium supplemented with 30 µg/ml gentamicin sulphate (Lonza BioWhittaker, Basel, Switzerland) for 15 min at 37°C/5% CO2 to kill residual extracellular bacteria. Infected cells were incubated overnight at 37°C/5% CO2 in cell culture medium in the presence of kinase inhibitors and 5 µg/ml gentamicin sulphate-containing medium to prevent the growth of extracellular bacteria. The solvent of the compounds, DMSO, was used at equal % v/v as a negative control. For the screen, each compound was tested in triplicate, on separate cell culture plates, resulting in triplicate values for each kinase inhibitor.
(§2) HeLa cells were harvested by trypsinization and fixed with 1% paraformaldehyde. Samples were measured on a FACSLyric with HTS extension (BD Biosciences). Flow cytometry data were analysed using FlowJo version 10 (TreeStar, Ashland, OR, USA). HeLa cells positive for GFP were gated to calculate the percentage of MRSA-infected cells. The cell count was used as surrogate readout of cell viability.
To identify potential “hit” compounds, the flow cytometry data were used to calculate standard z-scores using z = (x-μ)/σ – zneg, where x is total event count or the percent of GFP-positive cells from a single well, μ is the mean from wells of the plate, σ is the standard deviation of the plate and zneg is the mean z-score of the negative control of the plate (i.e., DMSO) ([Korbee et al., 2018]). To minimize the possibility that the presence of extreme values on a plate affected the z-scores, raw values that deviated two-fold from the negative controls were excluded when calculating plate means and standard deviations as used in the aforementioned formula. Compounds were considered a “hit” when z-scoreMRSA+ ≤ -2 and z-scoreHeLa ≥ -3 for cell count. In cases where compounds were screened twice, the average values were used to select hit compounds.

HeLa cells = assay: Compound screen by flow cytometry: HeLa cell count as surrogate readout of cell viability (z-scoreHeLa); format: cell-based, human; conditions: for z-scoreHeLa mean: mean of 3 replicates; for z-scoreHeLa rep 1 / cell count rep 1: replicate 1; for z-scoreHeLa rep 2 / cell count rep 2: replicate 2; for z-scoreHeLa rep 3 / cell count rep 3: replicate 3
Description: as §1, §2
To minimize the possibility that the presence of extreme values on a plate affected the z-scores, raw values that deviated two-fold from the negative controls were excluded when calculating plate means and standard deviations as used in the aforementioned formula. Compounds were considered a “hit” when z-scoreMRSA+ ≤ -2 and z-scoreHeLa ≥ -3 for cell count. In cases where compounds were screened twice, the average values were used to select hit compounds.

[1] = PKIS compound screen, Yes/No call
[2] = PKIS compound screen, Yes/No call (effect without cell death)
[3] = PKIS compounds raw data, MRSA-infected HeLa cells
[4] = PKIS compounds raw data, HeLa cell count
[5] = PKIS compound screen raw data, MRSA-infected HeLa cells
[6] = Yes/No: effect without cell death
[7] = compound screen, MRSA-infected HeLa cells
[8] = PKIS compound screen raw data, HeLa cell count
[9] = compound screen, HeLa cell count
[10] = PKIS compound screen, MRSA-infected HeLa cells
[11] = PKIS compound screen, Yes/No call on z-scoreMRSA+
[12] = PKIS compound screen, HeLa cell count
[13] = PKIS compound screen, Yes/No call on z-scoreHeLa

Row | SMILES | effect (intracellular MRSA; [1]) | hit (intracellular MRSA; [2]) | z-scoreMRSA+ mean (intracellular MRSA; PKIS compound screen) | z-scoreMRSA+ rep 1 (intracellular MRSA; PKIS compound screen) | z-scoreMRSA+ rep 2 (intracellular MRSA; PKIS compound screen) | z-scoreMRSA+ rep 3 (intracellular MRSA; PKIS compound screen) | %GFP+ rep 1 (intracellular MRSA; [3]) [%] | %GFP+ rep 2 (intracellular MRSA; [3]) [%] | %GFP+ rep 3 (intracellular MRSA; [3]) [%] | cell death (HeLa cells; [1]) | z-scoreHeLa mean (HeLa cells; PKIS compound screen) | z-scoreHeLa rep 1 (HeLa cells; PKIS compound screen) | z-scoreHeLa rep 2 (HeLa cells; PKIS compound screen) | z-scoreHeLa rep 3 (HeLa cells; PKIS compound screen) | %GFP+ rep 1 (intracellular MRSA; [5]) [%] | %GFP+ rep 2 (intracellular MRSA; [5]) [%] | %GFP+ rep 3 (intracellular MRSA; [5]) [%] | cell count rep 1 (HeLa cells; [8]) | cell count rep 2 (HeLa cells; [8]) | cell count rep 3 (HeLa cells; [8]) | further results
1 | COc1cc(N2CCN(C(C)C)CC2)ccc1Nc1nc(Nc2ccc(F)cc2C(N)=O)c2cc[nH]c2n1 [GSK1220512A] | No | No | 1.45 | 1.80 | 1.41 | 1.13 | 18.8 | 17.7 | 19.7 | No | -0.69 | -0.95 | -0.27 | -0.85 | – | – | – | – | – | – | cell count rep 1 (HeLa cells; [4]): 3725; cell count rep 2 (HeLa cells; [4]): 3908; cell count rep 3 (HeLa cells; [4]): 5195
2 | COc1ccc(Nc2nccc(-c3ccc(NC(=O)c4cc5cc(F)ccc5[nH]4)cc3)n2)cc1 [GSK1229496A] | – | – | – | – | – | – | – | – | – | – | – | – | – | – | 23.7 | 24.4 | 20.6 | 4195 | 3679 | 5039 | effect (intracellular MRSA; Yes/No call from z-scoreMRSA+): No; hit (intracellular MRSA; [6]): No; z-scoreMRSA+ mean (intracellular MRSA; [7]): -0.14; z-scoreMRSA+ rep 1 (intracellular MRSA; [7]): -0.37; z-scoreMRSA+ rep 2 (intracellular MRSA; [7]): 0.43; z-scoreMRSA+ rep 3 (intracellular MRSA; [7]): -0.48; cell death (HeLa cells; Yes/No call from z-scoreHeLa): No; z-scoreHeLa mean (HeLa cells; [9]): -0.24; z-scoreHeLa rep 1 (HeLa cells; [9]): -0.11; z-scoreHeLa rep 2 (HeLa cells; [9]): -0.48; z-scoreHeLa rep 3 (HeLa cells; [9]): -0.13
3 | NCCCC(NC(=O)c1cc(Br)c(-c2ccnc3[nH]ccc23)s1)c1ccccc1 (stereo not shown) [GSK1287544A] | – | – | – | – | – | – | – | – | – | – | – | – | – | – | 26.9 | 27.6 | 25.5 | 6296 | 6004 | 7754 | effect (intracellular MRSA; Yes/No call from z-scoreMRSA+): No; hit (intracellular MRSA; [6]): No; z-scoreMRSA+ mean (intracellular MRSA; [7]): 0.86; z-scoreMRSA+ rep 1 (intracellular MRSA; [7]): 0.38; z-scoreMRSA+ rep 2 (intracellular MRSA; [7]): 1.21; z-scoreMRSA+ rep 3 (intracellular MRSA; [7]): 0.99; cell death (HeLa cells; Yes/No call from z-scoreHeLa): No; z-scoreHeLa mean (HeLa cells; [9]): 1.43; z-scoreHeLa rep 1 (HeLa cells; [9]): 1.40; z-scoreHeLa rep 2 (HeLa cells; [9]): 1.31; z-scoreHeLa rep 3 (HeLa cells; [9]): 1.59
4 | CC(C(=O)NC1CCN(c2ccnc(Nc3ccc(F)cc3)n2)C1)c1ccc(Cl)cc1 (stereo not shown) [GSK1379713A] | – | – | – | – | – | – | – | – | – | – | – | – | – | – | 27.3 | 23.1 | 24.4 | 6297 | 5528 | 7616 | effect (intracellular MRSA; Yes/No call from z-scoreMRSA+): No; hit (intracellular MRSA; [6]): No; z-scoreMRSA+ mean (intracellular MRSA; [7]): 0.42; z-scoreMRSA+ rep 1 (intracellular MRSA; [7]): 0.47; z-scoreMRSA+ rep 2 (intracellular MRSA; [7]): 0.12; z-scoreMRSA+ rep 3 (intracellular MRSA; [7]): 0.66; cell death (HeLa cells; Yes/No call from z-scoreHeLa): No; z-scoreHeLa mean (HeLa cells; [9]): 1.28; z-scoreHeLa rep 1 (HeLa cells; [9]): 1.40; z-scoreHeLa rep 2 (HeLa cells; [9]): 0.94; z-scoreHeLa rep 3 (HeLa cells; [9]): 1.50
5 | O=C(NC1CCN(c2ccnc(Nc3ccc(F)cc3)n2)C1)c1cc2ccccc2s1 (stereo not shown) [GSK1379716A] | No | No | 0.16 | 0.26 | 0.28 | -0.07 | 28.4 | 27.5 | 26.9 | No | -0.43 | -0.58 | -1.00 | 0.28 | 18.9 | 18.2 | 21.3 | 35239 | 17173 | 16326 | z-scoreMRSA+ mean (intracellular MRSA; [10]): -0.09; z-scoreMRSA+ rep 1 (intracellular MRSA; [10]): 0.0322; z-scoreMRSA+ rep 2 (intracellular MRSA; [10]): -0.33; z-scoreMRSA+ rep 3 (intracellular MRSA; [10]): 0.0175; effect (intracellular MRSA; [11]): No; z-scoreHeLa mean (HeLa cells; [12]): -0.35; z-scoreHeLa rep 1 (HeLa cells; [12]): 0.85; z-scoreHeLa rep 2 (HeLa cells; [12]): -1.39; z-scoreHeLa rep 3 (HeLa cells; [12]): -0.51; cell death (HeLa cells; [13]): No; cell count rep 1 (HeLa cells; [4]): 5074; cell count rep 2 (HeLa cells; [4]): 4507; cell count rep 3 (HeLa cells; [4]): 6035
6 | O=C(Nc1ccccc1F)NC1CCN(c2ccnc(Nc3ccc(F)cc3)n2)C1 (stereo not shown) [GSK1379722A] | No | No | 1.11 | 1.04 | 1.28 | 1.01 | 32.4 | 32.7 | 32.7 | No | 0.96 | 1.17 | 0.61 | 1.09 | 20.2 | 23.8 | 25.6 | 32994 | 39130 | 43503 | z-scoreMRSA+ mean (intracellular MRSA; [10]): 1.37; z-scoreMRSA+ rep 1 (intracellular MRSA; [10]): 0.74; z-scoreMRSA+ rep 2 (intracellular MRSA; [10]): 1.59; z-scoreMRSA+ rep 3 (intracellular MRSA; [10]): 1.77; effect (intracellular MRSA; [11]): No; z-scoreHeLa mean (HeLa cells; [12]): 1.08; z-scoreHeLa rep 1 (HeLa cells; [12]): 1.95; z-scoreHeLa rep 2 (HeLa cells; [12]): 0.81; z-scoreHeLa rep 3 (HeLa cells; [12]): 0.47; cell death (HeLa cells; [13]): No; cell count rep 1 (HeLa cells; [4]): 7997; cell count rep 2 (HeLa cells; [4]): 6922; cell count rep 3 (HeLa cells; [4]): 7324
7 | COc1ccc(CNC(=O)NC2CCN(c3ccnc(Nc4ccc(OC)cc4)n3)C2)cc1 (stereo not shown) [GSK1379727A] | No | No | 1.14 | 0.96 | 1.05 | 1.40 | 32.0 | 31.5 | 34.8 | No | 0.68 | 0.99 | 0.43 | 0.62 | – | – | – | – | – | – | cell count rep 1 (HeLa cells; [4]): 7697; cell count rep 2 (HeLa cells; [4]): 6658; cell count rep 3 (HeLa cells; [4]): 6574
8 | COc1ccc(Nc2nccc(N3CCC(NC(=O)Nc4cccc(C(C)=O)c4)C3)n2)cc1 (stereo not shown) [GSK1379731A] | No | No | 0.32 | 0.53 | 0.41 | 0.00589 | 29.8 | 28.2 | 27.3 | No | 1.12 | 1.44 | 1.25 | 0.66 | 20.9 | 21.1 | 24.3 | 33897 | 29436 | 19502 | z-scoreMRSA+ mean (intracellular MRSA; [10]): 0.62; z-scoreMRSA+ rep 1 (intracellular MRSA; [10]): 0.57; z-scoreMRSA+ rep 2 (intracellular MRSA; [10]): 0.46; z-scoreMRSA+ rep 3 (intracellular MRSA; [10]): 0.84; effect (intracellular MRSA; [11]): No; z-scoreHeLa mean (HeLa cells; [12]): 0.48; z-scoreHeLa rep 1 (HeLa cells; [12]): 0.63; z-scoreHeLa rep 2 (HeLa cells; [12]): 0.71; z-scoreHeLa rep 3 (HeLa cells; [12]): 0.11; cell death (HeLa cells; [13]): No; cell count rep 1 (HeLa cells; [4]): 8450; cell count rep 2 (HeLa cells; [4]): 7898; cell count rep 3 (HeLa cells; [4]): 6635
